Our source for the Ki values is BindingDB's records for PubMed 1325033 (Universit&Acute, 1992).

The term Ki denotes the equilibrium dissociation constant of an inhibitor or competing ligand from its target. Read a low Ki as tighter binding.

Several values for one entry are separate records, joined by “and”; a condition that tells them apart may be missing. Equal entries are not always repeated. Peptide text beside a SMILES is read from it.

For this assay, the target named is T1, Pituitary adenylate cyclase-activating polypeptide (Rattus norvegicus, UniProt P13589).
T1 sequence (P13589 whole entry): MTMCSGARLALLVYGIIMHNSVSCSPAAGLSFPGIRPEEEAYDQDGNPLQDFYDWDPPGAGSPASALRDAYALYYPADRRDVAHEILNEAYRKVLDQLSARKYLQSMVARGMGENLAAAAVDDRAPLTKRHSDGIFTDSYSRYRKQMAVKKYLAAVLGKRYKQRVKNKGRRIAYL
As to `CCC(C)[C@H](NC(=O)CN)C(=O)N[C@@H](Cc1ccccc1)C(=O)N[C@H](C(=O)N[C@@H](CC(=O)O)C(=O)N[C@@H](CO)C(=O)N[C@@H](Cc1ccc(O)cc1)C(=O)N[C@@H](CO)C(=O)N[C@@H](CCCN=C(N)N)C(=O)N[C@@H](Cc1ccc(O)cc1)C(=O)N[C@@H](CCCN=C(N)N)C(=O)N[C@@H](CCCCN)C(=O)N[C@@H](CCC(N)=O)C(=O)N[C@@H](CCSC)C(=O)N[C@@H](C)C(=O)N[C@H](C(=O)N[C@@H](CCCCN)C(=O)N[C@@H](CCCCN)C(=O)N[C@@H](Cc1ccc(O)cc1)C(=O)N[C@@H](CC(C)C)C(=O)N[C@@H](C)C(=O)N[C@@H](C)C(=O)N[C@H](C(=O)N[C@@H](CC(C)C)C(=O)NCC(=O)N[C@@H](CCCCN)C(=O)N[C@@H](CCCN=C(N)N)C(=O)N[C@@H](Cc1ccc(O)cc1)C(=O)N[C@@H](CCCCN)C(=O)N[C@@H](CCC(N)=O)C(=O)N[C@@H](CCCN=C(N)N)C(=O)N[C@H](C(=O)N[C@@H](CCCCN)C(=O)N[C@@H](CC(N)=O)C(=O)N[C@@H](CCCCN)C(N)=O)C(C)C)C(C)C)C(C)C)[C@@H](C)O` (some centres not stated) [PACAP(4-38)] (HELM PEPTIDE1{G.[CCC(C)[C@H](N[*:1])C(=O)[*:2]].F.T.D.S.Y.S.R.Y.R.K.Q.M.A.V.K.K.Y.L.A.A.V.L.G.K.R.Y.K.Q.R.V.K.N.K.[am]}$$$$V2.0), the Ki was 300 nM.

On to `CCC(C)[C@H](NC(=O)CNC(=O)[C@H](CC(=O)O)NC(=O)[C@@H](Cc1ccccc1)NC(=O)[C@@H](N)Cc1cnc[nH]1)C(=O)N[C@@H](Cc1ccccc1)C(=O)N[C@H](C(=O)N[C@@H](CC(=O)O)C(=O)N[C@@H](CO)C(=O)N[C@@H](Cc1ccc(O)cc1)C(=O)N[C@@H](CO)C(=O)N[C@@H](CCCN=C(N)N)C(=O)N[C@@H](Cc1ccc(O)cc1)C(=O)N[C@@H](CCCN=C(N)N)C(=O)N[C@@H](CCCCN)C(=O)N[C@@H](CCC(N)=O)C(=O)N[C@@H](CCSC)C(=O)N[C@@H](C)C(=O)N[C@H](C(=O)N[C@@H](CCCCN)C(=O)N[C@@H](CCCCN)C(=O)N[C@@H](Cc1ccc(O)cc1)C(=O)N[C@@H](CC(C)C)C(=O)N[C@@H](C)C(=O)N[C@@H](C)C(=O)N[C@H](C(=O)N[C@@H](CC(C)C)C(N)=O)C(C)C)C(C)C)[C@@H](C)O` (stereo partly drawn) [[D-Phe2]PACAP-27], for which the Ki is 350 nM and 1000 nM.

Consider `CCC(C)[C@H](NC(=O)CNC(=O)[C@H](CC(=O)O)NC(=O)[C@@H](Cc1ccccc1)NC(=O)[C@@H](N)Cc1cnc[nH]1)C(=O)N[C@@H](Cc1ccccc1)C(=O)N[C@H](C(=O)N[C@@H](CC(=O)O)C(=O)N[C@@H](CO)C(=O)N[C@@H](Cc1ccc(O)cc1)C(=O)N[C@@H](CO)C(=O)N[C@@H](CCCN=C(N)N)C(=O)N[C@@H](Cc1ccc(O)cc1)C(=O)N[C@@H](CCCN=C(N)N)C(=O)N[C@@H](CCCCN)C(=O)N[C@@H](CCC(N)=O)C(=O)N[C@@H](CCSC)C(=O)N[C@@H](C)C(=O)N[C@H](C(=O)N[C@@H](CCCCN)C(=O)N[C@@H](CCCCN)C(=O)N[C@@H](Cc1ccc(O)cc1)C(=O)N[C@@H](CC(C)C)C(=O)N[C@@H](C)C(=O)N[C@@H](C)C(=O)N[C@H](C(=O)N[C@@H](CC(C)C)C(=O)NCC(=O)N[C@@H](CCCCN)C(=O)N[C@@H](CCCN=C(N)N)C(=O)N[C@@H](Cc1ccc(O)cc1)C(=O)N[C@@H](CCCCN)C(=O)N[C@@H](CCC(N)=O)C(=O)N[C@@H](CCCN=C(N)N)C(=O)N[C@H](C(=O)N[C@@H](CCCCN)C(=O)N[C@@H](CC(N)=O)C(=O)N[C@@H](CCCCN)C(N)=O)C(C)C)C(C)C)C(C)C)[C@@H](C)O` (stereo partly drawn) [[D-Phe2]PACAP-38] (HELM PEPTIDE1{H.[dF].D.G.[CCC(C)[C@H](N[*:1])C(=O)[*:2]].F.T.D.S.Y.S.R.Y.R.K.Q.M.A.V.K.K.Y.L.A.A.V.L.G.K.R.Y.K.Q.R.V.K.N.K.[am]}$$$$V2.0), for which the Ki was 5 nM and 40 nM.

In the case of “H-FTDSYSRYRKQMAVKKYLAAVL-NH2 [PACAP(5-27)]”, the Ki was 300 nM and 2000 nM.

As for “H-SNGIFTDSYSRYRKQMAVKKYLAAVL-NH2 [[Des-His1,Asn3]PACAP-27]”, the Ki is 1500 nM and 5000 nM.

As to “H-TDSYSRYRKQMAVKKYLAAVL-NH2 [PACAP(6-27)]”, the Ki is 4000 nM and > 10000 nM.

“H-TDSYSRYRKQMAVKKYLAAVLGKRYKQRVKNK-NH2 [PACAP(7-38)]”: the Ki was 25 nM and 150 nM.
